The numbers were not newly measured in patent US20170014414A1, “PHARMACEUTICAL COMPOSITION” (ratiopharm GmbH, priority 2014, published 2017), which cites them from elsewhere.

For this data set the following is noted: teaching of WO 2012/088033.

Structures are written as SMILES.

In the case of `CC(=O)Nc1cccc(-n2c(=O)n(C3CC3)c(=O)c3c(Nc4ccc(I)cc4F)n(C)c(=O)c(C)c32)c1.C[S+](C)[O-]` [trametinib DMSO solvate], the photostability entry was “can suffer from photo-instability”. For the same compound, the “stability of the solvate on exposure to moisture” value (during the formulation process) is given as “revert to an insoluble desolvated form when exposed to moisture”.

With `CC(=O)Nc1cccc(-n2c(=O)n(C3CC3)c(=O)c3c(Nc4ccc(I)cc4F)n(C)c(=O)c(C)c32)c1` [trametinib in its non-solvated form, N-{3-[3-cyclopropyl-5-(2-fluoro-4-iodophenylamino)-6,8-dimethyl-2,4,7-trioxo-3,4,6,7-tetrahydro-2H-pyrido[4,3-d]pyrimidin-1-yl]phenyl}acetamide], the “solubility compared with trametinib DMSO solvate” value is “much less soluble than trametinib DMSO solvate”.
